pEC50: −log10 of the molar value. Like-named read-outs stand apart in the source and are kept apart here.
Target: T1, human mAChR M4 (Homo sapiens, UniProt P08173)
T1 construct: expressed in transfected cells
T1 sequence (P08173 1-479): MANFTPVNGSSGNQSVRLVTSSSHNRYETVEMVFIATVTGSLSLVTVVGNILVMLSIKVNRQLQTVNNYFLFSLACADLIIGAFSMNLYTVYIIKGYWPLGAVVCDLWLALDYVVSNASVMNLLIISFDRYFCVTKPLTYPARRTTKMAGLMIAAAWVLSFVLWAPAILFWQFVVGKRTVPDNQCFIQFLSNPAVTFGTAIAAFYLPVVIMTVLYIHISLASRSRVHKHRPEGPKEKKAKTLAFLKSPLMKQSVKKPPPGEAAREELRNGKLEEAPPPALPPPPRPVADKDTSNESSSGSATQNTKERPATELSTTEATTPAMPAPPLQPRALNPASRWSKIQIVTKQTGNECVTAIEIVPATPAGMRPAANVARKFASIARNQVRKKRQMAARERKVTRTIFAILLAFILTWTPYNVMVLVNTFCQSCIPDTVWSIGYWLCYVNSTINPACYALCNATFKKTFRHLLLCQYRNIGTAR
Assay: mAChR M4 cell-based functional assay (calcium mobilization, CHO-K1 hM4-Gqi5 cells)
Conditions: for Emax at 30 µM: CHO-K1, % ACh maximum at 30 μM, human M4; for pEC50: increase in the EC20 acetylcholine response, CHO-K1 hM4-Gqi5 cells; for Emax: CHO-K1
How it was run: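 CHO-K1 cells stably expressing human M4 with chimeric Gqi5, loaded with Fluo-4 AM; compounds given as 11-point 1:3 curves and calcium flux read on FDSS at 1 Hz. Acetylcholine EC20 added at 144 s, EC80 at 230 s; agonist, PAM (EC20 potentiation) and antagonist (EC80 inhibition) EC50/Emax from four-parameter fits.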

[1] = positive allosteric modulator activity, read-out: Human M4 EC50

| Structure (SMILES) | Emax at 30 µM [%] | pEC50 [1] | Emax [%] | pEC50 (Human M4 EC50, positive allosteric modulator activity) |
| --- | --- | --- | --- | --- |
| Cc1nc(C)c(C)c(N2CCc3ncc(-c4ccc(N5CCN(C)CC5)nc4)cc3C2)n1 [compound 233, 3-(6-(4-methylpiperazin-1-yl)pyridin-3-yl)-6-(2,5,6-trimethylpyrimidin-4-yl)-5,6,7,8-tetrahydro-1,6-naphthyridine] | 80 | 6.44 |  |  |
| Cc1nc(C)c(C)c(N2CCc3ncc(-c4ccc(N5CCC5)nc4)cc3C2)n1 [compound 234, 3-(6-(azetidin-1-yl)pyridin-3-yl)-6-(2,5,6-trimethylpyrimidin-4-yl)-5,6,7,8-tetrahydro-1,6-naphthyridine] | 63 | 6.45 |  |  |
| Cc1nc(C)c(C)c(N2CCc3ncc(C(F)(F)F)cc3C2)n1 [compound 235, 3-(trifluoromethyl)-6-(2,5,6-trimethylpyrimidin-4-yl)-5,6,7,8-tetrahydro-1,6-naphthyridine] | 87 | 6.46 |  |  |
| Cc1nc(Cl)c(C)c(N2Cc3cc(Br)cnc3C(C)(C)C2)n1 [compound 236, 3-bromo-6-(6-chloro-2,5-dimethylpyrimidin-4-yl)-8,8-dimethyl-5,6,7,8-tetrahydro-1,6-naphthyridine] |  | ≤ 5.00 | 29 |  |
| Cc1c(Cl)nc(C(F)(F)F)nc1N1CCc2ncc(C(F)(F)F)cc2C1 [compound 237, 6-(6-chloro-5-methyl-2-(trifluoromethyl)pyrimidin-4-yl)-3-(trifluoromethyl)-5,6,7,8-tetrahydro-1,6-naphthyridine] | 73 | 5.53 |  |  |
| Cc1nc(Cl)c(C)c(N2Cc3cc(-c4cn(C)nc4C)cnc3C(C)(C)C2)n1 [compound 238, 6-(6-chloro-2,5-dimethylpyrimidin-4-yl)-3-(1,3-dimethyl-1H-pyrazol-4-yl)-8,8-dimethyl-5,6,7,8-tetrahydro-1,6-naphthyridine] | 36 | 6.09 |  |  |
| Cc1nc(Cl)c(C)c(N2Cc3cc(Nc4ccnn4C)cnc3C(C)(C)C2)n1 [compound 239, 6-(6-chloro-2,5-dimethylpyrimidin-4-yl)-8,8-dimethyl-N-(1-methyl-1H-pyrazol-5-yl)-5,6,7,8-tetrahydro-1,6-naphthyridin-3-amine] | 58 | 6.04 |  |  |
| Cc1nc(C)c(C)c(N2CCc3ncc(Nc4cccnc4F)cc3C2)n1 [compound 240, N-(2-fluoropyridin-3-yl)-6-(2,5,6-trimethylpyrimidin-4-yl)-5,6,7,8-tetrahydro-1,6-naphthyridin-3-amine] | 61 | 6.81 |  |  |
| Cc1nc(C)c(C)c(N2CCc3ncc(Nc4ccnn4C)cc3C2)n1 [compound 241, N-(1-methyl-1H-pyrazol-5-yl)-6-(2,5,6-trimethylpyrimidin-4-yl)-5,6,7,8-tetrahydro-1,6-naphthyridin-3-amine] | 81 | 6.95 |  |  |
| Cc1c(Cl)nc(C(F)(F)F)nc1N1CCc2ncc(C3CC3)cc2C1 [compound 242, 6-(6-chloro-5-methyl-2-(trifluoromethyl)pyrimidin-4-yl)-3-cyclopropyl-5,6,7,8-tetrahydro-1,6-naphthyridine] | 83 | 5.73 |  |  |
| Cc1nc(Cl)c(C)c(N2CCc3ncc(N4CCCn5nccc54)cc3C2)n1 [compound 243, 6-(6-chloro-2,5-dimethylpyrimidin-4-yl)-3-(6,7-dihydropyrazolo[1,5-a]pyrimidin-4(5H)-yl)-5,6,7,8-tetrahydro-1,6-naphthyridine] | 102 | 7.60 |  |  |
| Cc1nc(C)c(C)c(N2CCc3ncc(N4CCCn5nccc54)cc3C2)n1 [compound 244, 3-(6,7-dihydropyrazolo[1,5-a]pyrimidin-4(5H)-yl)-6-(2,5,6-trimethylpyrimidin-4-yl)-5,6,7,8-tetrahydro-1,6-naphthyridine] | 99 | 7.60 |  |  |
| Cc1nn(C)cc1-c1cnc2c(c1)CN(c1nc(C(F)(F)F)nc(Cl)c1C)CC2 [compound 245, 6-(6-chloro-5-methyl-2-(trifluoromethyl)pyrimidin-4-yl)-3-(1,3-dimethyl-1/-pyrazol-4-yl)-5,6,7,8-tetrahydro-1,6-naphthyridine] | 56 | 6.19 |  |  |
| Cc1c(Cl)nc(C(F)(F)F)nc1N1CCc2ncc(-c3ccc(N(C)C)nc3)cc2C1 [compound 246, 5-(6-(6-chloro-5-methyl-2-(trifluoromethyl)pyrimidin-4-yl)-5,6,7,8-tetrahydro-1,6-naphthyridin-3-yl)-N,N-dimethylpyridin-2-amine] | 19 | 5.08 |  |  |
| Cc1c(Cl)nc(C(F)(F)F)nc1N1CCc2ncc(Nc3ccnn3C)cc2C1 [compound 247, 6-(6-chloro-5-methyl-2-(trifluoromethyl)pyrimidin-4-yl)-N-(1-methyl-1H-pyrazol-5-yl)-5,6,7,8-tetrahydro-1,6-naphthyridin-3-amine] | 91 | 6.12 |  |  |
| Cc1c(Cl)nc(C(F)(F)F)nc1N1CCc2ncc(N3CCCn4nccc43)cc2C1 [compound 248, 6-(6-chloro-5-methyl-2-(trifluoromethyl)pyrimidin-4-yl)-3-(6,7-dihydropyrazolo[1,5-a]pyrimidin-4(5H)-yl)-5,6,7,8-tetrahydro-1,6-naphthyridine] | 88 | 6.52 |  |  |
| Cc1c(Cl)nc(C(F)(F)F)nc1N1CCc2ncc(Nc3cccnc3F)cc2C1 [compound 249, 6-(6-chloro-5-methyl-2-(trifluoromethyl)pyrimidin-4-yl)-N-(2-fluoropyridin-3-yl)-5,6,7,8-tetrahydro-1,6-naphthyridin-3-amine] | 82 | 5.84 |  |  |
| Cc1nc(Cl)c(C)c(N2Cc3cc(N4CCCn5nccc54)cnc3C(C)(C)C2)n1 [compound 250, 6-(6-chloro-2,5-dimethylpyrimidin-4-yl)-3-(6,7-dihydropyrazolo[1,5-a]pyrimidin-4(5H)-yl)-8,8-dimethyl-5,6,7,8-tetrahydro-1,6-naphthyridine] | 66 | 6.21 |  |  |
| Cc1nc(Cl)c(C)c(N2CCc3ncc(Nc4cccnc4F)cc3C2)n1 [compound 251, 6-(6-chloro-2,5-dimethylpyrimidin-4-yl)-N-(2-fluoropyridin-3-yl)-5,6,7,8-tetrahydro-1,6-naphthyridin-3-amine] | 93 | 6.71 |  |  |
| Cc1nc(C(F)(F)F)nc(N2CCc3ncc(C(F)(F)F)cc3C2)c1C [compound 252, 6-(5,6-dimethyl-2-(trifluoromethyl)pyrimidin-4-yl)-3-(trifluoromethyl)-5,6,7,8-tetrahydro-1,6-naphthyridine] | 75 | 5.99 |  |  |
| Cc1nc(Cl)nc(N2CCc3ncc(C(F)(F)F)cc3C2)c1C [compound 253, 6-(2-chloro-5,6-dimethylpyrimidin-4-yl)-3-(trifluoromethyl)-5,6,7,8-tetrahydro-1,6-naphthyridine] | 94 | 6.70 |  |  |
| Cc1nc(Cl)nc(N2CCc3ncc(C4CC4)cc3C2)c1C [compound 254, 6-(2-chloro-5,6-dimethylpyrimidin-4-yl)-3-cyclopropyl-5,6,7,8-tetrahydro-1,6-naphthyridine] |  |  | 95 | 7.15 |
| Cc1nc(Cl)c(C)c(N2Cc3cc(N)cnc3C(C)C2)n1 (centres unmarked) [compound 255, 6-(6-chloro-2,5-dimethylpyrimidin-4-yl)-8-methyl-5,6,7,8-tetrahydro-1,6-naphthyridin-3-amine] |  | 5.68 | 88 |  |
| Cc1nc(Cl)c(C)c(N2Cc3cc(C(F)(F)F)cnc3C(C)C2)n1 (centres unmarked) [compound 256, 6-(6-chloro-2,5-dimethylpyrimidin-4-yl)-8-methyl-3-(trifluoromethyl)-5,6,7,8-tetrahydro-1,6-naphthyridine] | 85 | 6.18 |  |  |
| Cc1nc(Cl)c(C)c(N2Cc3cc(C(F)(F)F)cnc3C(C)(C)C2)n1 [compound 257, 6-(6-chloro-2,5-dimethylpyrimidin-4-yl)-8,8-dimethyl-3-(trifluoromethyl)-5,6,7,8-tetrahydro-1,6-naphthyridine] | 39 | 5.08 |  |  |
| Cc1nc(C(F)(F)F)nc(N2CCc3ncc(N4CCCn5nccc54)cc3C2)c1C [compound 258, 3-(6,7-dihydropyrazolo[1,5-a]pyrimidin-4(5H)-yl)-6-(5,6-dimethyl-2-(trifluoromethyl)pyrimidin-4-yl)-5,6,7,8-tetrahydro-1,6-naphthyridine] | 79 | 7.16 |  |  |
| FC(F)(F)c1cnc2c(c1)CN(c1nc(Cl)nc3c1CCC3)CC2 [compound 259, 6-(2-chloro-6,7-dihydro-5H-cyclopenta[d]pyrimidin-4-yl)-3-(trifluoromethyl)-5,6,7,8-tetrahydro-1,6-naphthyridine] | 91 | 6.66 |  |  |
| Cc1nc(C)c(C)c(N2CCc3ncc(Oc4ccccc4F)cc3C2)n1 [compound 260, 3-(2-fluorophenoxy)-6-(2,5,6-trimethylpyrimidin-4-yl)-5,6,7,8-tetrahydro-1,6-naphthyridine] | 87 | 6.81 |  |  |
